This is an account of results in paper PMC6367500, “18β-glycyrrhetyl-3-O-sulfate would be a causative agent of licorice-induced pseudoaldosteronism” (Scientific Reports, 2019).

Data set [1] can be described thus: Concentrations of GL metabolites in plasma of a patient with pseudoaldosteronism (LC-MS/MS). The conditions noted are these: for plasma concentration, day 0 / concentration at 0 day: patient with licorice-induced pseudoaldosteronism, day 0; for plasma concentration, day 5 / concentration at 5 day: 5 days after stopping the Kampo formula; for concentration at 0 day: female; for concentration at 13 day: day 13. The data set is classed as in vivo, human. An excerpt:
The patient was a person who had taken a Kampo formula containing licorice for 3 years (1.5 g of licorice for 1 year and 2 months, and 3 g for 1 year and 10 months). On day 0, we found a low plasma potassium level (2.1 mEq/l) and a high creatinine kinase level (364 U/l). Since low plasma renin activity and a low aldosterone level were also found, the patient was diagnosed with pseudoaldosteronism due to licorice. The administration of the Kampo formula was stopped and potassium supplementation of up to 100 mEq/day was started. In the plasma collected on day 0, we detected compound 3 at 8.6 µM, GA at 1.3 µM, and 2 at 87 nM, while 1, GL and 3MGA were not detected. On day 5, the plasma potassium level was still 2.1 mEq/l and potassium supplementation was continued. However, the plasma concentrations of 3 and GA had decreased to 3.6 µM and 0.65 µM, respectively. 2, 1, GL, and 3MGA were not detected. On day 13, the plasma potassium level was increased to 2.8 mEq/l, and the concentrations of 3 and GA were 61 nM and 11 nM, respectively. On day 14, the plasma potassium level was 3.4 mEq/l, and the concentration of 3 was 57 nM; GA was not detected. On day 18, the plasma potassium level had recovered to a normal level (4.9 mEq/l), so potassium supplementation was stopped.
Female SD rats or EHBRs (9-week-old) were anesthetized by an intraperitoneal (i.p.) injection of urethane (1 g/kg) and their jugular veins were exposed. GA suspended in 0.5% CMC was then administered orally (200 mg/kg) to the unconscious rats, and blood samples were collected from the jugular vein; urine samples were collected using a metabolic cage at an appropriate time over a 12-h period. […] Feces were homogenized in phosphate-buffered saline (PBS; 0.15 M, pH 7.2), centrifuged (1.2 × 10^4 g, 10 min), and the supernatants were collected. After 1 week as a washout period, female SD rats were anesthetized by an i.p. injection of urethane (1 g/kg) and their biliary tract was cannulated. GA (0.2 mg/kg) was injected into the jugular vein, and the bile was collected every hour for 4 h. Aliquots (10 µl) of plasma, urine, homogenate of feces, or bile were mixed with 20 µl of subtilisin (0.91 U/ml) and incubated at 37 °C for 30 min, followed by the addition of 70 µl of astragaloside IV solution (1 µg/ml in ethanol containing 0.5% formic acid, used as internal standard), and kept at −20 °C for 30 min. […] The transitions (precursor to daughter) monitored and retention times were as follows: ESI(+) 743.4 to 567.5 m/z for compound 1 (5.5 min), ESI(−) 565.5 to 96.5 m/z for 2 (6.2 min), ESI(−) 549.5 to 96.5 m/z for 3 (8.1 min), ESI(+) 647.6 to 453.6 m/z for 3MGA (9.2 min), ESI(+) 471.3 to 91.0 m/z for GA (8.8 min), ESI(+) 823.5 to 453.6 m/z for GL (10.8 min), and ESI(+) 785.4 to 143.0 m/z for astragaloside IV (3.0 min). Linear regressions over the concentration range of 32 nM to 20 µM for each compound were examined using the peak-area ratio of the compounds to their internal standards and the least-squares method (r^2 > 0.98).
The patient was a person. They provided written informed consent to the use of their blood and urine samples for this study, which was approved by the Independent Ethics Committee of Kameda General Hospital, in accordance with the Declaration of Helsinki. Their anamnesis was follows: hypertension, systemic lupus erythematosus, and antiphospholipid antibody syndrome (for 15 years), necrotic pulmonary aspergillosis (6 years ago), cerebral infarction (14 and 4 years ago, two times), and stomach cancer (3 years ago). After the operation for stomach cancer, the patient had been treated with Kracie Juzentaihoto Extract Granules for Ethical Use (Kracie Pharmaceuticals., Tokyo, Japan). […]

A short description of data set [2]: Plasma and urine levels of GA metabolites in EHBRs orally treated with GA (LC-MS/MS). The data set is classed as in vivo, Eisai hyperbilirubinuria rats (EHBRs). The conditions noted are these: for level in accumulated urine for 12 h / concentration at 12 h / level in accumulated urine for 12 h relative to that of 3MGA: GA 200 mg/kg orally; for concentration at 12 h: oral, read-out: plasma concentration at 12 h after treatment. On the procedure:
Female SD rats or EHBRs (9-week-old) were anesthetized by an intraperitoneal (i.p.) injection of urethane (1 g/kg) and their jugular veins were exposed. […] Feces were homogenized in phosphate-buffered saline (PBS; 0.15 M, pH 7.2), centrifuged (1.2 × 10^4 g, 10 min), and the supernatants were collected. After 1 week as a washout period, female SD rats were anesthetized by an i.p. injection of urethane (1 g/kg) and their biliary tract was cannulated. […] Aliquots (10 µl) of plasma, urine, homogenate of feces, or bile were mixed with 20 µl of subtilisin (0.91 U/ml) and incubated at 37 °C for 30 min, followed by the addition of 70 µl of astragaloside IV solution (1 µg/ml in ethanol containing 0.5% formic acid, used as internal standard), and kept at −20 °C for 30 min.

Where [3] appears, read: female, EHBR (Eisai hyperbilirubinuria rat), rat, plasma.

As to `CC1(C)[C@@H](O[C@@H]2O[C@H](C(=O)O)[C@@H](O)[C@H](O)[C@H]2O)CC[C@]2(C)[C@H]3C(=O)C=C4[C@@H]5C[C@@](C)(C(=O)O)CC[C@]5(C)CC[C@@]4(C)[C@]3(C)CC[C@@H]12` [3MGA, 3-monoglucuronyl glycyrrhetinic acid, reference compound], the “plasma concentration (below detection limit)” value in data set [1] (patient plasma sample, LC-MS/MS detection limit) is on record as “less than 3.2 nM”. For the same molecule, the “plasma concentration, day 0” value in data set [1] is recorded as “not detected”. For the same molecule, in data set [1] (patient), the “plasma concentration, day 5” value is reported as “not detected”. In addition, the “level in accumulated urine for 12 h” value in data set [2] is 0.31 nmol. Moreover, in data set [2] (setting [3]), the concentration at 12 h was found to be 90 nM.
For `CC1(C)[C@@H](O)CC[C@]2(C)[C@H]3C(=O)C=C4[C@@H]5C[C@@](C)(C(=O)O)CC[C@]5(C)CC[C@@]4(C)[C@]3(C)CC[C@@H]12` [GA, glycyrrhetinic acid, reference compound], the concentration at 0 day in data set [1] (human, plasma, oral) came out at 1300 nM. Besides, in data set [1] (human, plasma, oral, patient), the concentration at 5 day was 650 nM and the concentration at 13 day was found to be 11 nM. In addition, in data set [1] (patient, day 14), the “plasma concentration, day 14” value is “not detected”. Also, the “level in accumulated urine for 12 h” value in data set [2] is given as 0.05 nmol. Moreover, the concentration at 12 h in data set [2] (setting [3]) is about 10000 nM. Moreover, in data set [2] (female, EHBR (Eisai hyperbilirubinuria rat), rat, plasma, po, 0.2 g/kg, GA 0.20 g/kg orally, read-out: time of maximum plasma concentration), the Tmax amounted to 1 h.
Turning to `CC1(C)[C@@H](OS(=O)(=O)O)CC[C@]2(C)[C@H]3C(=O)C=C4[C@@H]5C[C@@](C)(C(=O)O[C@@H]6O[C@H](C(=O)O)[C@@H](O)[C@H](O)[C@H]6O)C[C@H](O)[C@]5(C)CC[C@@]4(C)[C@]3(C)CC[C@@H]12` [compound 1, 22α-hydroxy-18β-glycyrrhetyl-3-O-sulfate-30-glucuronide], the “plasma concentration, day 0” value in data set [1] is “not detected”. For the same molecule, in data set [1] (patient), the “plasma concentration, day 5” value was “not detected”. Also, the “level in accumulated urine for 12 h relative to that of 3MGA” value (“level … for 12 h relative to that of 3MGA” below) in data set [2] worked out at 8 fold. Also, in data set [2] (setting [3]), the concentration at 12 h is about 10000 nM.
Turning to `CC1(C)[C@@H](OS(=O)(=O)O)CC[C@]2(C)[C@H]3C(=O)C=C4[C@@H]5C[C@@](C)(C(=O)O)C[C@H](O)[C@]5(C)CC[C@@]4(C)[C@]3(C)CC[C@@H]12` [compound 2, 22α-hydroxy-18β-glycyrrhetyl-3-O-sulfate], in data set [1] (human, plasma, oral), the concentration at 0 day is 87 nM. The “plasma concentration, day 5” value in data set [1] (patient) is given as “not detected”. In addition, the “level … for 12 h relative to that of 3MGA” value in data set [2] turned out to be 110 fold. The concentration at 12 h in data set [2] (setting [3]) is about 10000 nM.
Turning to `CC1(C)[C@@H](OS(=O)(=O)O)CC[C@]2(C)[C@H]3C(=O)C=C4[C@@H]5C[C@@](C)(C(=O)O)CC[C@]5(C)CC[C@@]4(C)[C@]3(C)CC[C@@H]12` [compound 3, 18β-glycyrrhetyl-3-O-sulfate], the concentration at 0 day in data set [1] (human, plasma, oral) was 8600 nM. Also, in data set [1] (human, plasma, oral, patient), the concentration at 5 day came to 3600 nM and the concentration at 13 day was 61 nM. Also, the concentration at 14 day in data set [1] (human, plasma, oral, patient, day 14) turned out to be 57 nM. Besides, the “plasma concentration, day 18” value in data set [1] (patient, day 18) is “below the detectable limit”. The “level … for 12 h relative to that of 3MGA” value in data set [2] amounted to 62 fold. The concentration at 12 h in data set [2] (setting [3]) was about 10000 nM.
